Source: a melting point compilation (Tetko et al.; mined from patent text by program, amines drawn as free bases though some values may be those of a salt)

SMILES	melting point [°C]
OCCOC1=Nc2ccc(Cl)cc2C(c2ccccc2)=NC1	142 to 144
Cc1c(C(=O)O)cn(-c2ccnc3ccccc23)c1C	238
O=C(OCCO)c1ccc(C(=O)OCCO)cc1	108 to 110
C=CCOc1ccc(C(=O)O[C@H]2CC[C@H](C(=O)CCCCCBr)CC2)cc1	56
CC(C)(C)NCC(O)COc1ccc(-c2nc(C(N)=O)c[nH]2)cc1 (centres undefined)	149 to 154
CNc1nc(-c2cccc(NC(=O)c3ccc(N4CCCC4)nc3)c2)c2cc(OC)c(OC)cc2n1	239 to 241
NS(=O)(=O)C1(C2C(Cl)=CC=CN2C(F)(F)F)C=CC(Cl)=CC1Cl (centres undefined)	125 to 126
CC1SC(=O)N(C(=O)C2CC3CCC2(C)C3(C)C)N=C1c1ccc2c(c1)CCCN2C(=O)c1ccc2c(c1)OCO2 (centres undefined)	216 to 217
O=[N+]([O-])c1ccc(CCNCCc2ccc([N+](=O)[O-])cc2)cc1	86 to 91
CCOC(=O)C(=O)C(C#N)c1ccc(Br)cc1 (centres undefined)	146
Cc1nc2c(O)c(CCC(=O)c3ccccc3OCc3ccccc3)c(C(=O)N(C)C)cc2n1C	193 to 194
CCOC(=O)c1noc(-c2ccc(SC)cc2Cl)c1C(=O)C1CC1	50
O=C1c2c(cc(O)c(Cl)c2Cl)CC1c1ccccc1 (centres undefined)	250 to 252
O=C(OCC1CCN(CC2CSc3ccc(F)cc3C2)CC1)c1ccc(F)cc1 (centres undefined)	113 to 114
BrCc1noc2cc3c(cc12)CCC3	69 to 71
CCOC(=O)c1ccc(-c2cccc(-c3ccc4c(c3)C(C)(C)CCC4(C)C)c2O)cc1	121
COC(=O)c1cccc(OCCCOc2cc3c(cc2O)CCO3)c1	93
Cc1ccc(C(=O)c2c(O)cc(C(=O)O)cc2[N+](=O)[O-])cc1	250 to 251
N#Cc1cc(C(=O)NNC(=O)c2occ(-c3ccncc3)c2-c2ccccc2)ccc1O	179 to 181
CCOCc1nc2c(N)nc3cc(OCc4cccc([N+](=O)[O-])c4)ccc3c2n1CC(C)C	162 to 164

SMILES	melting point [°C]
CN(C)C=C1C[N+]([O-])=C(c2ccccc2Cl)c2cc(Cl)ccc2C1=O	196 to 198
Cc1c(C)c2c(c(C)c1O)CCC(C)(O)O2 (centres undefined)	105 to 107
c1coc(Cn2c(NC3CCNCC3)nc3cccnc32)c1	159
Cn1cc(C2=C(c3c4n(c5ccccc35)CCCC4)C(=O)OC2=O)c2ccccc21	276 to 278
CCCc1cc(-c2csc(-c3ccc(OCC)c(OCC)c3)n2)cc(C(=O)O)c1O	179 to 180
Cc1cc2c(c(C)c1NC(=O)CC(C)(C)C)C(=O)C(C)(C)O2	181 to 182
O=C1C=C(NNc2ccccc2)CCN1	165 to 168
CCCCCCCCOC(=O)COc1cc(F)ccc1C(=S)NCc1cccc([N+](=O)[O-])c1	69 to 72
CC(C)C(=O)OC1C(n2ccc(N)nc2=O)OC(COC(=O)c2ccc(Cl)cc2)C1(C#C[Si](C)(C)C)OC(=O)C(C)C (centres undefined)	97 to 99
CCC1(C(=O)OC)C(=O)Nc2cccc(Cl)c2CC1c1ccc(OC)cc1 (centres undefined)	190 to 192
Cc1cc(C(=N)N)ccc1N1CCN(c2ccc(CCC(=O)O)cc2)C1=O	> 270
Nc1cc([N+](=O)[O-])cc(CCO)c1N	172
Cc1nn(C)cc1C(=O)NC(C#N)c1ccsc1 (centres undefined)	113 to 114
COc1ccc(Br)cc1C12CC3CC(CC(C3)C1)C2	138 to 139
CCCCCCc1cc2c(s1)-n1c(C)nnc1CN=C2c1ccccc1OC	128 to 130
CC(=O)c1ccccc1OCc1cccc(S(N)(=O)=O)c1	124 to 125
CS(=O)(=O)n1c(C#N)nc2cc3c(cc21)OC(F)(Cl)C(F)(Cl)O3 (centres undefined)	123 to 126
COc1ccc(COc2coc(COC3CCCCO3)cc2=O)cc1 (centres undefined)	95 to 96
Cn1ccnc1S(=O)(=O)c1ccccc1Cl	156 to 159
